Test results reported in patent EP0167958A2, “Oral solid pharmaceutical form with sequential action for the administering of drugs with ulcerogenic side effect” (LABORATORIO ITALIANO BIOCHIMICO FARMACEUTICO LISAPHARMA …, priority 1984, dated 1986).

System: gastric mucosa
Experiment: test of pylorus ligature in rats (ulcerating index, inhibition of FANS-induced gastric lesions)
Format: in vivo, Charles River Wistar rats
Conditions: p.o., pylorus-ligated rats, 6 hours
Description: Several compositions containing sucralfate : FANS in weight ratios comprised within the range of from 1: 4 to 8 : 1 have been tested on rats by means of the test of pylorus ligature according to the technique Linda J. et al., J. Pharmac., 1978, 30, 244 - 246 "Inhibitors of Gastric Lesions in the Rat".
The testing has been carried out on Charles River Wis tar rats of 230 - 270 g of weight and in the number of 8 rats per each group. The rats, fasting from 15 hours, have been submitted to etheric anesthesia and then to the liga ture of the pylorus. The rats have been treated, immediate ly after the recovery, by means of gastric probe, with the FANS alone, with the FANS in the sucralfate-FANS form with sequential action according to the present invention, and by means of the administering of sucralfate first, and then, after a 10 minutes interval, of FANS.
The single active principles have been administered as aqueous suspension in sodium-CMC at 0.5% p.o.
Six hours later than the intervention, the rats have been sacrificed and the stomach, after having been withdrawn, has been cut along the line of the greater curvature. The stomach, after having been slightly washed with bidistilled water has been spread out and mounted on a support for the'evaluation of induced ulceration. The alterations detected on the gastric mucosa have been quantified on the basis of their type and largeness, with a value ranging from 0 to 1 (ulcerating index, UI), according to the following empirical scale: • 0 = mucose not damaged (control submitted to surgical handling and to placebo) • 0.25 = diffused accentuated hyperemia • 0.50 = diffused erosion • 0.75 = diffused hemorrhagic ulceration • 1 = diffused hemorrhagic ulceration with perforation and damaging of the whole gastric mucosa.
The activity of the form of sucralfate and FANS with sequential action according to the invention has been expressed as percentage inhibition of the lesion relatively to that observed in the control group as treated with the ligature of pylorus and administering of FANS only, and com pared to that obtained from the contemporary administering of sucralfate and FANS. The ID 50 (Inhibiting Dosis 50) was computated by the probit method.

## 3,4,5,6-tetra-(polyhydroxyalumino)-n-D-glu· copyranosyl sulphate - 2,3,4,5-tetra-(polyhydroxyalumino)-B-D-fructofuranoside sulphate [sucralfate]
Administering of the sucralfate-FANS form with sequential action, FANS: Diclofenac Na (50 mg/kg)
  Inhibiting Dosis 50 of sucralfate for the ulcerogenic activity of some FANS: 96.6 mg
Administering of the sucralfate-FANS form with sequential action, FANS: Indomethacin (100 mg/kg)
  Inhibiting Dosis 50 of sucralfate for the ulcerogenic activity of some FANS: 97 mg
Administering of the sucralfate-FANS form with sequential action, FANS: Sodium indoprofen betainate (200 mg/kg as indoprofen)
  Inhibiting Dosis 50 of sucralfate for the ulcerogenic activity of some FANS: 85.6 mg
Contemporary administering of sucralfate and of FANS, FANS: Diclofenac Na (50 mg/kg)
  Inhibiting Dosis 50 of sucralfate for the ulcerogenic activity of some FANS: 157 mg
Contemporary administering of sucralfate and of FANS, FANS: Indomethacin (100 mg/kg)
  Inhibiting Dosis 50 of sucralfate for the ulcerogenic activity of some FANS: 204 mg
Contemporary administering of sucralfate and of FANS, FANS: Sodium indoprofen betainate (200 mg/kg as indoprofen)
  Inhibiting Dosis 50 of sucralfate for the ulcerogenic activity of some FANS: 206 mg
